Earlier results as cited in patent publication US11219662B2, “Methods for treating hypotension in a patient that has received an ACE inhibitor by administering angiotensin II” (La Jolla Pharma, LLC, priority 2016, dated 2022).

Details: no experiment described

Molecule	activity relative to the activity of angiotensin II (of the activity of angiotensin II, background statement)	activity compared with angiotensin II (qualitative background statement)
Arg-Val-Tyr-Ile-His-Pro-Phe (RVYIHPF; printed: Arg-Val-Tyr-Ile-His-Pro-Phe) [Angiotensin III]	approximately 40%	–
CC[C@H](C)[C@H](NC(=O)[C@H](Cc1ccc(O)cc1)NC(=O)[C@@H](N)C(C)C)C(=O)N[C@@H](Cc1cnc[nH]1)C(=O)N1CCC[C@H]1C(=O)N[C@@H](Cc1ccccc1)C(=O)O [Angiotensin IV, Val-Tyr-Ile-His-Pro-Phe]	–	less activity than angiotensin II
